{"source": "patent US6355799B1", "about": "“Substituted benzene compounds, process for their preparation, and herbicidal and defoliant compositions containing them” (ISK Americas Incorporated, priority 1997, dated 2002)", "key": {"[1]": {"system": "redroot pigweed (Amaranthus retroflexus, AMARE)", "test": "Pre-emerge test, greenhouse herbicide activity screening", "format": "in vivo", "settings": "pre-emerge, phytotoxicity rating 0-100 at 14 days after application", "method_in_brief": "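Compounds in acetone were track-sprayed at 15-1000 g ai/ha (187 l/ha) on sandy loam pots: pre-emerge one day after seeding, post-emerge at 2-3 leaf stage with 0.25% v/v non-ionic surfactant. Phytotoxicity was rated 14 days later on a 0 (no damage) to 100 (complete death) scale.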"}, "[2]": {"system": "barnyardgrass (Echinochloa crus-galli, ECHCG)", "test": "Pre-emerge test, greenhouse herbicide activity screening", "format": "in vivo", "settings": "pre-emerge, phytotoxicity rating 0-100 at 14 days after application", "method_in_brief": "(§1)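 Compounds in acetone were track-sprayed at 187 l/ha, 15–1000 g ai/ha, onto sandy loam pots. Pre-emerge seeds were sown one day before spraying, with surface watering afterwards. Post-emerge plants were at the 2–3 leaf stage and sprayed with 0.25% v/v non-ionic surfactant. Injury was rated 0–100 at 14 days.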"}, "[3]": {"system": "green foxtail (Setaria viridis, SETVI)", "test": "Pre-emerge test, greenhouse herbicide activity screening", "format": "in vivo", "settings": "pre-emerge, phytotoxicity rating 0-100 at 14 days after application", "method_in_brief": "as §1"}, "[4]": {"system": "ivyleaf morningglory (Ipomoea hederacea, IPOHE)", "test": "Pre-emerge test, greenhouse herbicide activity screening", "format": "in vivo", "settings": "pre-emerge, phytotoxicity rating 0-100 at 14 days after application", "method_in_brief": "as §1"}, "[5]": {"system": "johnsongrass (Sorghum halepense, SORHA)", "test": "Pre-emerge test, greenhouse herbicide activity screening", "format": "in vivo", "settings": "pre-emerge, phytotoxicity rating 0-100 at 14 days after application", "method_in_brief": "as §1"}, "[6]": {"system": "lambsquarters (Chenopodium album, CHEAL)", "test": "Pre-emerge test, greenhouse herbicide activity screening", "format": "in vivo", "settings": "pre-emerge, phytotoxicity rating 0-100 at 14 days after application", "method_in_brief": "as §1"}, "[7]": {"system": "large crabgrass (Digitaria sanguinalis, DIGSA)", "test": "Pre-emerge test, greenhouse herbicide activity screening", "format": "in vivo", "settings": "pre-emerge, phytotoxicity rating 0-100 at 14 days after application", "method_in_brief": "as §1"}, "[8]": {"system": "sicklepod (Cassia obtusifolia, CASOB)", "test": "Pre-emerge test, greenhouse herbicide activity screening", "format": "in vivo", "settings": "pre-emerge, phytotoxicity rating 0-100 at 14 days after application", "method_in_brief": "as §1"}, "[9]": {"system": "velvetleaf (Abutilon theophrasti, ABUTH)", "test": "Pre-emerge test, greenhouse herbicide activity screening", "format": "in vivo", "settings": "pre-emerge, phytotoxicity rating 0-100 at 14 days after application", "method_in_brief": "as §1"}, "[10]": {"system": "field corn (Zea mays L., var. Dekalb 535, CORN)", "test": "Pre-emerge test, crop safety", "format": "in vivo", "settings": "crop damage, pre-emerge, phytotoxicity rating 0-100 at 14 days after application", "method_in_brief": "(§2)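 Fourteen days after spraying, crop and weed injury was graded visually from 0, no effect, to 100, every plant dead. Test substances were dissolved in acetone and applied at 15–1000 g ai/ha with a flat-fan nozzle. Application was either pre-emergence, one day after sowing, or post-emergence at the 2–3 leaf stage.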"}, "[11]": {"system": "soybean (Glycine max L., var. Pella 86, SOY)", "test": "Pre-emerge test, crop safety", "format": "in vivo", "settings": "crop damage, pre-emerge, phytotoxicity rating 0-100 at 14 days after application", "method_in_brief": "as §2"}, "[12]": {"system": "upland rice (Oryza sp., var. Tebonnet, RICE)", "test": "Pre-emerge test, crop safety", "format": "in vivo", "settings": "crop damage, pre-emerge, phytotoxicity rating 0-100 at 14 days after application", "method_in_brief": "as §2"}, "[13]": {"system": "barnyardgrass (Echinochloa crus-galli, ECHCG)", "test": "Post-emerge test, greenhouse herbicide activity screening", "format": "in vivo", "settings": "post-emerge, phytotoxicity rating 0-100 at 14 days after application", "method_in_brief": "(§3)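 Applied at 15–1000 g ai/ha from acetone in 187 l/ha spray volume. Post-emergence applications included 0.25% v/v non-ionic surfactant and reached plants sown 8–21 days before. Pre-emergence applications were incorporated by surface watering. Efficacy or crop damage was rated on a 0–100 scale after 14 days.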"}, "[14]": {"system": "green foxtail (Setaria viridis, SETVI)", "test": "Post-emerge test, greenhouse herbicide activity screening", "format": "in vivo", "settings": "post-emerge, phytotoxicity rating 0-100 at 14 days after application", "method_in_brief": "as §3"}, "[15]": {"system": "ivyleaf morningglory (Ipomoea hederacea, IPOHE)", "test": "Post-emerge test, greenhouse herbicide activity screening", "format": "in vivo", "settings": "post-emerge, phytotoxicity rating 0-100 at 14 days after application", "method_in_brief": "as §3"}, "[16]": {"system": "johnsongrass (Sorghum halepense, SORHA)", "test": "Post-emerge test, greenhouse herbicide activity screening", "format": "in vivo", "settings": "post-emerge, phytotoxicity rating 0-100 at 14 days after application", "method_in_brief": "as §3"}, "[17]": {"system": "lambsquarters (Chenopodium album, CHEAL)", "test": "Post-emerge test, greenhouse herbicide activity screening", "format": "in vivo", "settings": "post-emerge, phytotoxicity rating 0-100 at 14 days after application", "method_in_brief": "as §3"}, "[18]": {"system": "large crabgrass (Digitaria sanguinalis, DIGSA)", "test": "Post-emerge test, greenhouse herbicide activity screening", "format": "in vivo", "settings": "post-emerge, phytotoxicity rating 0-100 at 14 days after application", "method_in_brief": "as §3"}, "[19]": {"system": "redroot pigweed (Amaranthus retroflexus, AMARE)", "test": "Post-emerge test, greenhouse herbicide activity screening", "format": "in vivo", "settings": "post-emerge, phytotoxicity rating 0-100 at 14 days after application", "method_in_brief": "as §3"}, "[20]": {"system": "sicklepod (Cassia obtusifolia, CASOB)", "test": "Post-emerge test, greenhouse herbicide activity screening", "format": "in vivo", "settings": "post-emerge, phytotoxicity rating 0-100 at 14 days after application", "method_in_brief": "as §3"}, "[21]": {"system": "velvetleaf (Abutilon theophrasti, ABUTH)", "test": "Post-emerge test, greenhouse herbicide activity screening", "format": "in vivo", "settings": "post-emerge, phytotoxicity rating 0-100 at 14 days after application", "method_in_brief": "as §3"}, "[22]": {"system": "field corn (Zea mays L., var. Dekalb 535, CORN)", "test": "Post-emerge test, crop safety", "format": "in vivo", "settings": "post-emerge, crop damage rating 0-100 at 14 days after application", "method_in_brief": "as §1"}, "[23]": {"system": "soybean (Glycine max L., var. Pella 86, SOY)", "test": "Post-emerge test, crop safety", "format": "in vivo", "settings": "crop damage rating 0-100 at 14 days after application", "method_in_brief": "as §1"}, "[24]": {"system": "upland rice (Oryza sp., var. Tebonnet, RICE)", "test": "Post-emerge test, crop safety", "format": "in vivo", "settings": "post-emerge, crop damage rating 0-100 at 14 days after application", "method_in_brief": "as §1"}}}
{"smiles": "C#CCOc1c(Cl)cc(F)c(-n2nnn(CCCF)c2=O)c1N", "note": "[Compound 5-17, 1-(2-amino-4-chloro-6-fluoro-3-propargyloxyphenyl)-4-(3-fluoroproyl)-1,4-dihydro-5-oxo-5H-tetrazole]", "values": [{"measurement": "Pre-emerge Herbicidal Activity AMARE", "setting": "[1]; rate 63 g ai/ha", "result": 30}, {"measurement": "Pre-emerge Herbicidal Activity AMARE", "setting": "[1]; rate 250 g ai/ha", "result": 100}, {"measurement": "Pre-emerge Herbicidal Activity ECHCG", "setting": "[2]; rate 63 g ai/ha", "result": 0}, {"measurement": "Pre-emerge Herbicidal Activity ECHCG", "setting": "[2]; rate 250 g ai/ha", "result": 40}, {"measurement": "Pre-emerge Herbicidal Activity SETVI", "setting": "[3]; rate 63 g ai/ha", "result": 95}, {"measurement": "Pre-emerge Herbicidal Activity SETVI", "setting": "[3]; rate 250 g ai/ha", "result": 100}, {"measurement": "Pre-emerge Herbicidal Activity IPOHE", "setting": "[4]; rate 63 g ai/ha", "result": 0}, {"measurement": "Pre-emerge Herbicidal Activity IPOHE", "setting": "[4]; rate 250 g ai/ha", "result": 0}, {"measurement": "Pre-emerge Herbicidal Activity SORHA", "setting": "[5]; rate 63 g ai/ha", "result": 40}, {"measurement": "Pre-emerge Herbicidal Activity SORHA", "setting": "[5]; rate 250 g ai/ha", "result": 70}, {"measurement": "Pre-emerge Herbicidal Activity CHEAL", "setting": "[6]; rate 63 g ai/ha", "result": 70}, {"measurement": "Pre-emerge Herbicidal Activity CHEAL", "setting": "[6]; rate 250 g ai/ha", "result": 100}, {"measurement": "Pre-emerge Herbicidal Activity DIGSA", "setting": "[7]; rate 63 g ai/ha", "result": 30}, {"measurement": "Pre-emerge Herbicidal Activity DIGSA", "setting": "[7]; rate 250 g ai/ha", "result": 50}, {"measurement": "Pre-emerge Herbicidal Activity CASOB", "setting": "[8]; rate 63 g ai/ha", "result": 0}, {"measurement": "Pre-emerge Herbicidal Activity CASOB", "setting": "[8]; rate 250 g ai/ha", "result": 30}, {"measurement": "Pre-emerge Herbicidal Activity ABUTH", "setting": "[9]; rate 63 g ai/ha", "result": 40}, {"measurement": "Pre-emerge Herbicidal Activity ABUTH", "setting": "[9]; rate 250 g ai/ha", "result": 100}, {"measurement": "Pre-emerge Herbicidal Activity CORN", "setting": "[10]; rate 63 g ai/ha", "result": 0}, {"measurement": "Pre-emerge Herbicidal Activity CORN", "setting": "[10]; rate 250 g ai/ha", "result": 0}, {"measurement": "Pre-emerge Herbicidal Activity SOY", "setting": "[11]; rate 63 g ai/ha", "result": 0}, {"measurement": "Pre-emerge Herbicidal Activity SOY", "setting": "[11]; rate 250 g ai/ha", "result": 0}, {"measurement": "Pre-emerge Herbicidal Activity RICE", "setting": "[12]; rate 63 g ai/ha", "result": 20}, {"measurement": "Pre-emerge Herbicidal Activity RICE", "setting": "[12]; rate 250 g ai/ha", "result": 20}, {"measurement": "Post-emerge Herbicidal Activity ECHCG", "setting": "[13]; 63 g ai/ha", "result": 0}, {"measurement": "Post-emerge Herbicidal Activity ECHCG", "setting": "[13]; 250 g ai/ha", "result": 20}, {"measurement": "Post-emerge Herbicidal Activity SETVI", "setting": "[14]; 63 g ai/ha", "result": 0}, {"measurement": "Post-emerge Herbicidal Activity SETVI", "setting": "[14]; 250 g ai/ha", "result": 80}, {"measurement": "Post-emerge Herbicidal Activity IPOHE", "setting": "[15]; 63 g ai/ha", "result": 30}, {"measurement": "Post-emerge Herbicidal Activity IPOHE", "setting": "[15]; 250 g ai/ha", "result": 40}, {"measurement": "Post-emerge Herbicidal Activity SORHA", "setting": "[16]; 63 g ai/ha", "result": 0}, {"measurement": "Post-emerge Herbicidal Activity SORHA", "setting": "[16]; 250 g ai/ha", "result": 10}, {"measurement": "Post-emerge Herbicidal Activity CHEAL", "setting": "[17]; 63 g ai/ha", "result": 20}, {"measurement": "Post-emerge Herbicidal Activity CHEAL", "setting": "[17]; 250 g ai/ha", "result": 60}, {"measurement": "Post-emerge Herbicidal Activity DIGSA", "setting": "[18]; 63 g ai/ha", "result": 0}, {"measurement": "Post-emerge Herbicidal Activity DIGSA", "setting": "[18]; 250 g ai/ha", "result": 0}, {"measurement": "Post-emerge Herbicidal Activity AMARE", "setting": "[19]; 63 g ai/ha", "result": 0}, {"measurement": "Post-emerge Herbicidal Activity AMARE", "setting": "[19]; 250 g ai/ha", "result": 30}, {"measurement": "Post-emerge Herbicidal Activity CASOB", "setting": "[20]; 63 g ai/ha", "result": 0}, {"measurement": "Post-emerge Herbicidal Activity CASOB", "setting": "[20]; 250 g ai/ha", "result": 30}, {"measurement": "Post-emerge Herbicidal Activity ABUTH", "setting": "[21]; 63 g ai/ha", "result": 90}, {"measurement": "Post-emerge Herbicidal Activity ABUTH", "setting": "[21]; 250 g ai/ha", "result": 100}, {"measurement": "Post-emerge Herbicidal Activity CORN", "setting": "[22]; 63 g ai/ha", "result": 0}, {"measurement": "Post-emerge Herbicidal Activity CORN", "setting": "[22]; 250 g ai/ha", "result": 10}, {"measurement": "Post-emerge Herbicidal Activity SOY", "setting": "[23]; 63 g ai/ha", "result": 15}, {"measurement": "Post-emerge Herbicidal Activity SOY", "setting": "[23]; 250 g ai/ha", "result": 70}, {"measurement": "Post-emerge Herbicidal Activity RICE", "setting": "[24]; 63 g ai/ha", "result": 10}, {"measurement": "Post-emerge Herbicidal Activity RICE", "setting": "[24]; 250 g ai/ha", "result": 50}]}
{"smiles": "COc1c(Cl)cc(F)c(-n2ncc(C(F)(F)F)cc2=O)c1N", "note": "[Compound 11-4, 2-(2-amino-4-chloro-6-fluoro-3-methoxyphenyl)-5-trifluoromethylpyridazin-3-one]", "values": [{"measurement": "melting point", "result": "156 to 157", "unit": "°C"}]}
